Experimental data from US5300527A, “Alkylamino-and alkylamino alkyl diarylketones” (Hoechst-Roussel Pharmaceuticals Incorporated, priority 1992, dated 1994).
Counter-ions that a name gives are not always drawn. Like-named read-outs stand apart in the source and are kept apart here.

How the values were obtained:
[1] = tested on: scopolamine induced memory deficit; test: Dark Avoidance Assay (reversal of scopolamine induced memory deficit); assay type: in vivo; details: mice
Method: This utility can also be ascertained by determining the ability of these compounds to restore cholinergically deficient memory in the Dark Avoidance Assay. In this assay mice are tested for their ability to remember an unpleasant stimulus for a period of 24 hours. A mouse is placed in a chamber that contains a dark compartment; a strong incandescent light drives it to the dark compartment, where an electric shock is administered through metal plates on the floor. The animal is removed from the testing apparatus and tested again, 24 hours later, for the ability to remember the electric shock.
If scopolamine, an anticholinergic that is known to cause memory impairment, is administered before an animal's initial exposure to the test chamber, the animal re-enters the dark compartment shortly after being placed in the test chamber 24 hours later. This effect of scopolamine is blocked by an active test compound, resulting in a greater interval before re-entry into the dark compartment.
The results for an active compound are expressed as the percent of a group of animals in which the effect of scopolamine is blocked, as manifested by an increased interval between being placed in the test chamber and re-entering the dark compartment.

[2] = tested on: 2-phenyl-1,4-benzoquinone-induced writhing; test: 2-phenyl-1,4-benzoquinone-induced writhing test in mice (analgesic activity); assay type: in vivo; details: Mus musculus, sc, read-out: Inhibition in Writhing (%)
Description: Compounds of the present invention are useful as analgesic agents due to their ability to alleviate pain in mammals. […] Exptl. Biol. Med. 95, 729 (1957)].

[3] = mice, dose 20 mg/kg of body wt., subcutaneous

| SMILES | inhibition in vivo at 20 mg/kg [2, 3] | other results |
| --- | --- | --- |
| CN(C)c1cccc(C(=O)Cc2cccc(Cl)c2)c1.Cl [2-(3-Chlorophenyl)-1-[3-(dimethylamino)phenyl]ethanone hydrochloride] | – | % of animals with scopolamine induced memory deficit reversal ([1]; dose 0.16 mg/kg, s.c.): 40% |
| CN(C)c1cccc(CC(=O)C(F)(F)c2ccccc2)c1 [1,1-Difluoro-3-[3-(dimethylamino)phenyl-1-phenyl-2-propanone] | 58% | – |
| CN(C)c1cccc(C(=O)C(F)(F)c2cccc(Cl)c2)c1 [2-(3-Chlorophenyl)-2,2-difluoro-1-[3-(dimethylamino)phenyl]ethanone hydrochloride] | – | inhibition in vivo at 20 mg/kg [2]: 50% |
| CN(C)c1ccc(C(=O)C(F)(F)c2ccccc2)cc1 [2,2-Difluoro-1-[4-(dimethylamino)phenyl]-2-phenylethanone] | 67% | – |
| CN(C)c1cccc(C(=O)C(F)(F)C(O)c2cccc(Cl)c2)c1 (centres unmarked) [3-(3-Chlorophenyl)-2,2-difluoro-3-hydroxy-1-[3-(dimethylamino)phenyl]propanone hydrochloride] | 63% | – |
| CNC(=O)Oc1ccc2c(c1)[C@]1(C)CCN(C)[C@@H]1N2C [physostigmine, reference compound] | – | % of animals with scopolamine induced memory deficit reversal ([1]; dose 0.31 mg/kg, s.c. (reference)): 20% |
| CN(C)c1cccc(C(=O)COc2cccc(Cl)c2)c1 [2-(3-Chlorophenoxy)-1-[3-(dimethylamino)phenyl]ethanone] | 69% | – |
| CN(C)c1cccc(OCC(=O)Cc2cccc(Cl)c2)c1 [1-(3-Chlorophenyl)-3-[3-(dimethylamino)phenoxy]-2-propanone] | 41% | – |
| CN(C)c1ccc(C(=O)C(F)c2cccc(Cl)c2)cc1 (centres unmarked) [2-(3-Chlorophenyl)-2-fluoro-1-[4-(dimethylamino)phenyl]ethanone] | 44% | – |
| CCC(=O)O[C@](Cc1ccccc1)(c1ccccc1)[C@H](C)CN(C)C [propoxyphene, reference compound] | – | inhibition in vivo at 3.9 mg/kg [2]: 50% |
| CN(C)c1cccc(CC(=O)Cc2cccc(Cl)c2)c1 [1-(3-Chlorophenyl)-3-[3-(dimethylamino)phenyl]-2-propanone] | 51% | – |
